In patent US9358233B2, “Method for treating acute myeloid leukemia” (priority 2010, dated 2016):

System: patients with relapsed/refractory AML
Experiment: Clinical trial of BI 6727 in combination with LD-Ara-C in AML patients
Type: in vivo
Procedure: BI 6727 (350 mg) was administered as a one-hour intravenous infusion on Days 1+15 every 28 days in combination with fixed dose LD-Ara-C (low-dose cytarabine) (20 mg twice daily s.c. [subcutaneous]). The starting dose of BI 6727 was based on the MTD previously determined in solid tumor patients. Patients with no progression after the first cycle were allowed to continue treatment.

[1] = preliminary, 32 patients with relapsed/refractory AML, different BI 6727 doses in combination with LD-Ara-C

CC[C@@H]1C(=O)N(C)c2cnc(Nc3ccc(C(=O)N[C@H]4CC[C@H](N5CCN(CC6CC6)CC5)CC4)cc3OC)nc2N1C(C)C [BI 6727, N-[trans-4-[4-(cyclopropylmethyl)-1-piperazinyl]cyclohexyl]-4-[[(7R)-7-ethyl-5,6,7,8-tetrahydro-5-methyl-8-(1-methylethyl)-6-oxo-2-pteridinyl]amino]-3-methoxy-benzamide]
MTD (BI 6727 d1+15q28d in combination with LD-Ara-C): 350 mg
DLTs as rated per protocol (kind) (human, in vivo): pneumonia, mucositis, hypersensitivity/allergic reaction and myocardial infarction
Dose-limiting toxicities (DLTs), number of patients (human, in vivo): four
Clinical activity (in combination with LD-Ara-C, AML patients): showed first signs of clinical activity
Best response: incomplete blood count recovery (CRi) or complete remission (CR), number of patients [1]: seven
Best response: partial remission, number of patients [1]: 1 patients
Best response: temporarily stable blood values ("no change"), number of patients [1]: Six
Progression during or at the end of the first-treatment cycle, number of patients [1]: Eleven
